Values quoted from earlier work as cited in US20160168384A1, “PORPHYRINOID COMPONENTS, METHOD AND APPARATUS FOR WATER PHOTODISINFECTION” (NIMARTECH LIMITED, priority 2013, published 2016).

Tested on: faecal coliforms
Settings: wastewater; micromolar porphyrin; visible light or sunlight, about 4 hours

C[n+]1ccc(-c2c3nc(c(-c4cc[n+](C)cc4)c4ccc([nH]4)c(-c4cc[n+](C)cc4)c4nc(c(-c5cc[n+](C)cc5)c5ccc2[nH]5)C=C4)C=C3)cc1 [Sample C1, meso-tetra(N,N,N,N-methyl-pyridyl)porphine]
decrease of coliform counts: at least 5 logs
